Data on one substance can be found in patent publication US20070225255A1, “Use of Mitochondrially Targeted Antioxidant in the Treatment of Liver Diseases and Epithelial Cancers” (priority 2004, published 2007).

One data set has as its system DDC intoxicated mice. Kind of data set: Serum parameters of liver damage in DDC intoxicated mice. The following applies: DDC 3 days, simultaneous MitoQ 3, 6 and 12 mg/kg. In kind it is in vivo, mouse. Here is the method:
In serum from various animal groups the activity of serum liver enzymes indicating liver damage, namely bilirubin, alanine aminotransferase (ALT/GPT; in diagram represented by white bars), aspartate aminotransferase (ASAT/GOT in diagram represented by black bars) are determined according to standard protocols in clinical diagnostics by employing commercially available kits (No: 11552414; 11876805216; 11876848216 all purchased by Roche AG, Switzerland) on a Hitachi/Roche 917 Analyser.
In serum from various tested animal groups following parameters indicating liver damage, namely bilirubin, alanine aminotransferase (ALT/GPT), aspartate aminotransferase (ASAT/GOT) and glutamate dehydrogenase (GLDH) are determined according to standard protocols in clinical diagnostics employing commercially available kits (No: 11552414; 11876805216; 11876848216; 11929992 all purchased by Roche AG, Switzerland) on a Hitachi/Roche 917 Analyser.

Data set [1] relates to mitochondria within isolated cells. The following applies: in vitro; cited from earlier work.
For data set [2], the system named is human epithelial cell cancer xenografts. Kind of data set: Nude mice tumor xenografts. It counts as in vivo, mouse. On the procedure: Tumor cell lines or primary tumors that are xenografted subcutaneously according to standard methods (Li K. et al., 2003, Cancer Res., 63(13): 3593-3597) include colon adenocarcinomas, invasive ductal carcinomas of the breast, small and non-small cell lung carcinoma, prostate tumors, pancreatic tumors and stomach tumors.
Tumor-derived cell lines (grown in DMEM/10% FBS) are harvested in log-phase growth, washed twice with PBS, resuspended in 1 ml PBS (2.5×10^7 cells/ml), and injected subcutaneously into the right flank of a nude mouse (Hsd: athymic nu/nu, Harlan Winkelmann; aged between 5 and 6 weeks) at 5×10^6 cells/mouse (0.2 ml). Tumor growth is monitored every other day for the indicated periods (depending on the cell type). Tumor size is determined by the product of two perpendicular diameters and the height above the skin surface.

Turning to MitoQ, in the data set on DDC intoxicated mice, the “alanine aminotransferase (ALT/GPT) serum activity” value is given as “most prominent reduction” and the “aspartate aminotransferase (AST/GOT) serum activity” value is reported as “reduction of enzymatic activity”. Moreover, in the data set on DDC intoxicated mice (data not shown), the bilirubin in serum result is on record as “remains without any changes”. The accumulation by mitochondria entry in data set [1] is “rapidly and selectively accumulated by mitochondria”. Moreover, in data set [2], the growth of tumors result is recorded as “reduced growth of tumors”, the “necrosis of the tumors” value was “increased necrosis of the tumors” and the “vascularization of the tumor xenografts” value is given as “decreased vascularization”.
